In ChEMBL document CHEMBL1134054, “p38 kinase inhibitors for the treatment of arthritis and osteoporosis: thienyl, furyl, and pyrrolyl ureas” (Bioorg Med Chem Lett, 2001) one finds inhibition and IC50 data, which are given here for 55 molecules.

Experiment [1] addresses T1, Mitogen-activated protein kinase 14 (Homo sapiens, UniProt Q16539). Description: Percent inhibition determined in vitro against mitogen-activated protein kinase p38 alpha 2 derived from Escherichia coli at 5 uM.
Experiment [2] deals with T1, Mitogen-activated protein kinase 14. Description: In vitro inhibition of mitogen-activated protein kinase p38 alpha 2 derived from Escherichia coli.
For experiment [3] the target is unchanged. In words: Inhibition of Mitogen-activated protein kinase p38 alpha 2.
The subject of a further experiment is SW1353. In words: Inhibition of IL-6 production by SW1353 cells treated with both cytokines IL-1 and TNF-alpha. Type of experiment: functional, cell-based. To be noted: Homo sapiens.
The target of experiment [4] is T1, Mitogen-activated protein kinase 14. In words: Inhibition of p38 alpha-2 kinase.

T1 sequence (Q16539 whole entry): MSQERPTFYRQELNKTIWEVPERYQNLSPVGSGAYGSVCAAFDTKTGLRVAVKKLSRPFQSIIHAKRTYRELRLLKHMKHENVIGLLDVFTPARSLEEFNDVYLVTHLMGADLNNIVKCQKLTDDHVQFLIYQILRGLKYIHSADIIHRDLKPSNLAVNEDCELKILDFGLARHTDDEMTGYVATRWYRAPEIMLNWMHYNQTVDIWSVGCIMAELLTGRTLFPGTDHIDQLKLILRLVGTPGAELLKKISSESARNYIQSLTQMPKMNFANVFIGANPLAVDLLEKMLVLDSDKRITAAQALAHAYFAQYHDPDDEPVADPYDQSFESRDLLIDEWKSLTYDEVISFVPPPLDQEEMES

Consider `COC(=O)c1sc(CCc2ccccc2)cc1NC(=O)Nc1ccc(C)cc1`, for which the inhibition (usually how much of the control response was suppressed) in experiment [1] is 17%. Same read-out and setting: to `COC(=O)c1sc(C(C)(C)C)cc1NC(=O)Nc1ccc(C(C)=O)cc1` belongs 21%; to `COC(=O)c1sc(CC(C)C)cc1NC(=O)Nc1ccc(C)cc1`, 0%; to `COC(=O)c1sc(C(C)(C)C)cc1NC(=O)Nc1ccc(-c2ccccc2)cc1`, 6%. Take `COC(=O)c1oc(C(C)(C)C)cc1NC(=O)Nc1ccc(Cl)c(Cl)c1`: the IC50 (usually the concentration that gives 50% inhibition) in experiment [2] amounted to 1.2 µM. The molecule `COC(=O)c1sc(C(C)C)cc1NC(=O)Nc1ccc(C)cc1` had an inhibition in experiment [1] of 37%. Turning to `COC(=O)c1sc(C(C)(C)C)cc1NC(=O)Nc1ccc(F)cc1`, the IC50 in experiment [2] was 0.83 µM. The molecule also had an inhibition in experiment [1] of 35%. In experiment [3], `Cc1ccc(NC(=O)Nc2cc(C(C)(C)C)sc2C(=O)OCCO)cc1` showed an IC50 of 0.057 µM. Consider `CNC(=O)c1[nH]c(C(C)(C)C)cc1NC(=O)Nc1ccc(C)cc1`, for which the IC50 in experiment [2] was 0.067 µM; in the experiment with SW1353, 0.015 µM.

`COC(=O)c1sc(C(C)(C)C)cc1NC(=O)Nc1ccc(C(C)C)cc1`: the inhibition in experiment [1] turned out to be 10%.

In experiment [3], `COC(=O)c1sc(N)cc1NC(=O)Nc1ccc(C)cc1` registered an IC50 of 0.441 µM. Moreover, the inhibition in experiment [1] is 90%. As to `COC(=O)c1[nH]c(C(C)(C)C)cc1NC(=O)Nc1cccc2ccccc12`, the concentration for half-maximal inhibition (IC50) in experiment [2] worked out at 0.012 µM; with SW1353 it was 0.309 µM.

Regarding `COC(=O)c1sc(C(C)(C)C)cc1NC(=O)Nc1cccc(Cl)c1Cl`, in experiment [2], the IC50 is 0.18 µM. Besides, in experiment [1], the inhibition was determined as 79%. Regarding `CNC(=O)c1[nH]c(C(C)(C)C)cc1NC(=O)Nc1cccc(Cl)c1Cl`, the IC50 in experiment [2] came to 0.044 µM; in the experiment with SW1353, 0.016 µM. In addition, the inhibition in experiment [1] was 95%. In experiment [2], `COC(=O)c1oc(C(C)(C)C)cc1NC(=O)Nc1cccc(Cl)c1Cl` displayed a 50% inhibitory concentration (IC50) of 0.032 µM. The inhibition in experiment [1] is 97%. In the case of `COC(=O)c1sc(C(C)(C)C)cc1NC(=O)Nc1ccc(NC(C)=O)cc1`, in experiment [1], the inhibition came out at 23%. Regarding `COC(=O)c1[nH]c(C(C)(C)C)cc1NC(=O)Nc1ccc(F)cc1`, the IC50 came out at 0.042 µM in experiment [2] and 0.464 µM with SW1353. The inhibition in experiment [1] worked out at 89%. In turn, `CCCOC(=O)c1sc(C(C)(C)C)cc1NC(=O)Nc1ccc(C)cc1` yielded an IC50 in experiment [3] of 0.482 µM.

In experiment [2], `COC(=O)c1sc(C(C)(C)C)cc1NC(=O)Nc1ccc(N)cc1` had an IC50 of 0.75 µM. In experiment [1], this molecule gave an inhibition of 40%. In turn, `CNC(=O)c1sc(C(C)(C)C)cc1NC(=O)Nc1ccc(C(C)C)cc1` had an IC50 in experiment [2] of 0.27 µM. The molecule further came in with an inhibition in experiment [1] of 63%. Taken in the same sequence, the figures for `COC(=O)c1oc(C(C)(C)C)cc1NC(=O)Nc1ccc(F)cc1` were 0.21 µM and 67%. The molecule `COC(=O)c1[nH]c(C(C)(C)C)cc1NC(=O)Nc1cccc(Cl)c1` had a half-inhibitory concentration (IC50) in experiment [2] of 0.027 µM. For the same molecule, in experiment [1], the inhibition was determined as 95%.

Regarding `COC(=O)c1[nH]c(C(C)(C)C)cc1NC(=O)Nc1ccc(Cl)cc1`, the IC50 in experiment [2] was 0.043 µM. For the same molecule, in experiment [1], the inhibition worked out at 92%. For the molecule `COC(=O)c1sc(CCC(C)C)cc1NC(=O)Nc1ccc(C)cc1`, the inhibition in experiment [1] was found to be 8%. In experiment [2], `COC(=O)c1c(NC(=O)Nc2ccc(C)cc2)cc(C(C)(C)C)n1C` registered an IC50 of 0.4 µM. As to `COC(=O)c1c(NC(=O)Nc2ccccc2)cc(C(C)(C)C)n1C`, the 50% inhibitory concentration (IC50) in experiment [2] was 0.947 µM. Also, the inhibition in experiment [1] came out at 32%.

For `COC(=O)c1sc(C(C)(C)C)cc1NC(=O)Nc1ccc(C)cc1`, the IC50 in experiment [3] came to 0.413 µM; in experiment [4], 0.248 µM; in the experiment with SW1353, 0.905 µM. This molecule also showed an inhibition in experiment [1] of 94%.

In the case of `COC(=O)c1oc(C(C)(C)C)cc1NC(=O)Nc1ccc(C)cc1`, the IC50 in experiment [2] was 0.073 µM; in the experiment with SW1353, 0.335 µM.

With `COC(=O)c1[nH]c(C(C)(C)C)cc1NC(=O)Nc1ccccc1Cl`, 0.06 µM corresponded to half-maximal inhibition in experiment [2] (IC50). In experiment [1], the inhibition came out at 85%.

For the molecule `COC(=O)COC(=O)c1sc(C(C)(C)C)cc1NC(=O)Nc1ccc(C)cc1`, half-maximal inhibition in experiment [3] (IC50) was put at 5.31 µM. In experiment [1], `COC(=O)c1sc(C(C)(C)C)cc1NC(=O)Nc1ccc(OC)cc1` displayed an inhibition of 8%. Regarding `COC(=O)c1sc([N+](=O)[O-])cc1NC(=O)Nc1ccc(C)cc1`, the inhibition in experiment [1] was 0%. Turning to `COCCOC(=O)c1sc(C(C)(C)C)cc1NC(=O)Nc1ccc(C)cc1`, in experiment [3], the IC50 came out at 0.464 µM. In turn, `COC(=O)c1c(NC(=O)Nc2ccc(F)cc2)cc(C(C)(C)C)n1C` registered a half-inhibitory concentration (IC50) in experiment [2] of 0.663 µM. The molecule further showed an inhibition in experiment [1] of 42%. Taken in the same sequence, the figures for `COC(=O)c1c(NC(=O)Nc2cccc3ccccc23)cc(C(C)(C)C)n1C` were 0.253 µM and 67%.

As for `Cc1ccc(NC(=O)Nc2cc(C(C)(C)C)sc2C(=O)OC(C)C)cc1`, 0.741 µM corresponded to half-maximal inhibition in experiment [3] (IC50). For the molecule `CCc1ccc(NC(=O)Nc2cc(C(C)(C)C)sc2C(=O)OC)cc1`, it took 0.66 µM to reach half-maximal inhibition in experiment [2] (IC50). The molecule further registered an inhibition in experiment [1] of 40%. Molecule `COC(=O)c1sc(C(C)(C)C)cc1NC(=O)Nc1ccc(O)cc1` yielded an IC50 in experiment [2] of 0.61 µM. In addition, in experiment [1], the inhibition worked out at 44%. For `CCOC(=O)c1sc(C(C)(C)C)cc1NC(=O)Nc1ccc(C)cc1`, half-maximal inhibition in experiment [3] (IC50) required 3.02 µM. Molecule `COC(=O)c1sc(C(C)(C)C)cc1NC(=O)Nc1ccc(Cl)cc1` showed an IC50 in experiment [2] of 0.22 µM. Further, the inhibition in experiment [1] is 76%. Molecule `CCc1ccc(NC(=O)Nc2cc(C(C)(C)C)sc2C(=O)NC)cc1` registered an IC50 in experiment [2] of 0.119 µM. The same molecule yielded an inhibition in experiment [1] of 70%. As for `COC(=O)c1sc(C(C)(C)O)cc1NC(=O)Nc1ccc(C)cc1`, the inhibition in experiment [1] is 34%. As for `CNC(=O)c1[nH]c(C(C)(C)C)cc1NC(=O)Nc1cccc2ccccc12`, the results for the IC50 (in experiment [2]; in the experiment with SW1353) were 0.028 µM and 0.035 µM, respectively. Also, the inhibition in experiment [1] is 96%. With `CNC(=O)c1sc(C(C)(C)C)cc1NC(=O)Nc1ccc(F)cc1`, half-maximal inhibition in experiment [2] (IC50) was put at 0.088 µM. Moreover, the inhibition in experiment [1] worked out at 80%. The corresponding values for `COC(=O)c1sc(C(C)(C)C)cc1NC(=O)Nc1ccccc1` are 0.29 µM and 68%. Regarding `COC(=O)c1[nH]c(C(C)(C)C)cc1NC(=O)Nc1ccc(C)cc1`, the IC50 in experiment [2] is 0.033 µM; in the experiment with SW1353 it was 1.14 µM. `COC(=O)c1sc(C(C)(C)C)cc1NC(=O)Nc1ccc(C(=O)O)cc1` came in with an inhibition in experiment [1] of 4%.

Consider `COC(=O)c1[nH]c(C(C)(C)C)cc1NC(=O)Nc1cccc(Cl)c1Cl`, for which the IC50 was determined as 0.006 µM in experiment [2] and 0.079 µM with SW1353. The molecule further returned an inhibition in experiment [1] of 99%. For the molecule `CNC(=O)c1sc(C(C)(C)C)cc1NC(=O)Nc1ccc(C)cc1`, the IC50 was determined as 0.034 µM in experiment [3] and 1.35 µM with SW1353. Turning to `COC(=O)c1sc(C(C)(C)C)cc1NC(=O)Nc1ccc([N+](=O)[O-])cc1`, the inhibition in experiment [1] stood at 16%.

`Cc1ccc(NC(=O)Nc2cc(C(C)(C)C)sc2C(=O)OCCCO)cc1` had an IC50 in experiment [3] of 0.056 µM.

Regarding `COC(=O)c1sc(-c2ccccc2)cc1NC(=O)Nc1ccc(C)cc1`, the inhibition in experiment [1] turned out to be 0%. In turn, `COC(=O)c1[nH]c(C(C)(C)C)cc1NC(=O)Nc1ccccc1` returned an IC50 in experiment [2] of 0.044 µM. The molecule `COC(=O)c1c(NC(=O)Nc2cccc(Cl)c2Cl)cc(C(C)(C)C)n1C` returned an IC50 in experiment [2] of 0.387 µM. In addition, the inhibition in experiment [1] was determined as 50%.

In experiment [2], `CNC(=O)c1oc(C(C)(C)C)cc1NC(=O)Nc1ccc(C)cc1` yielded an IC50 of 0.032 µM.
